Key:
Format in all cases: functional
Nilaparvata lugens [1] = assay: Effect on life span in Nilaparvata lugens (brown planthopper) adult at 0.016 ppm measured after 7 days relative to control
Nilaparvata lugens [2] = assay: Insecticidal activity against Nilaparvata lugens (brown planthopper) fifth-instar nymphs assessed as mortality at 0.00064 ppm measured after 7 days; conditions: 168 h
Nilaparvata lugens [3] = assay: Effect on egg maturity in Nilaparvata lugens (brown planthopper) at 0.00064 ppm measured after 7 days relative to control
Nilaparvata lugens [4] = assay: Insecticidal activity against Nilaparvata lugens (brown planthopper) assessed as mortality at 50 ppm measured after 7 days relative to control; conditions: 168 h
Nilaparvata lugens [5] = assay: Effect on life span in Nilaparvata lugens (brown planthopper) adult at 0.4 ppm measured after 7 days relative to control
Nilaparvata lugens [6] = assay: Effect on oviposition in Nilaparvata lugens (brown planthopper) assessed as eggs laid at 10 ppm measured after 7 days relative to control
Nilaparvata lugens [7] = assay: Insecticidal activity against Nilaparvata lugens (brown planthopper) assessed as mortality at 2 ppm measured after 7 days relative to control; conditions: 168 h
Nilaparvata lugens [8] = assay: Insecticidal activity against Nilaparvata lugens (brown planthopper) emerged female adult assessed as mortality at 0.016 ppm measured after 7 days relative to control; conditions: 168 h
Nilaparvata lugens [9] = assay: Effect on development of ovarioles in Nilaparvata lugens (brown planthopper) assessed as number of ovarioles at 0.4 ppm measured after 7 days relative to control
Nilaparvata lugens [10] = assay: Effect on oviposition in Nilaparvata lugens (brown planthopper) assessed as eggs laid at 0.016 ppm measured after 7 days relative to control
Nilaparvata lugens [11] = assay: Insecticidal activity against Nilaparvata lugens (brown planthopper) emerged female adult assessed as mortality at 2 ppm measured after 7 days relative to control; conditions: 168 h
Nilaparvata lugens [12] = assay: Insecticidal activity against Nilaparvata lugens (brown planthopper) fifth-instar nymphs assessed as mortality at 10 ppm measured after 7 days; conditions: 168 h
Nilaparvata lugens [13] = assay: Insecticidal activity against Nilaparvata lugens (brown planthopper) fifth-instar nymphs assessed as mortality at 0.4 ppm measured after 7 days; conditions: 168 h
Nilaparvata lugens [14] = assay: Insecticidal activity against Nilaparvata lugens (brown planthopper) emerged female adult assessed as mortality at 0.0000256 ppm measured after 7 days relative to control; conditions: 168 h
Nilaparvata lugens [15] = assay: Effect on life span in Nilaparvata lugens (brown planthopper) adult at 10 ppm measured after 7 days relative to control
Nilaparvata lugens [16] = assay: Insecticidal activity against Nilaparvata lugens (brown planthopper) fifth-instar nymphs assessed as mortality at 0.0032 ppm measured after 7 days; conditions: 168 h
Nilaparvata lugens [17] = assay: Insecticidal activity against Nilaparvata lugens (brown planthopper) assessed as mortality at 0.08 ppm measured after 7 days relative to control; conditions: 168 h
Nilaparvata lugens [18] = assay: Effect on oviposition in Nilaparvata lugens (brown planthopper) assessed as eggs laid at 0.0032 ppm measured after 7 days relative to control
Nilaparvata lugens [19] = assay: Insecticidal activity against Nilaparvata lugens (brown planthopper) emerged female adult assessed as mortality at 0.000128 ppm measured after 7 days relative to control; conditions: 168 h
Nilaparvata lugens [20] = assay: Insecticidal activity against Nilaparvata lugens (brown planthopper) emerged female adult assessed as mortality at 0.0032 ppm measured after 7 days relative to control; conditions: 168 h
Nilaparvata lugens [21] = assay: Insecticidal activity against Nilaparvata lugens (brown planthopper) fifth-instar nymphs assessed as mortality at 50 ppm measured after 7 days; conditions: 168 h
Nilaparvata lugens [22] = assay: Insecticidal activity against Nilaparvata lugens (brown planthopper) assessed as mortality at 0.0032 ppm measured after 7 days relative to control; conditions: 168 h
Nilaparvata lugens [23] = assay: Effect on development of ovarioles in Nilaparvata lugens (brown planthopper) assessed as number of ovarioles at 0.016 ppm measured after 7 days relative to control
Nilaparvata lugens [24] = assay: Insecticidal activity against Nilaparvata lugens (brown planthopper) assessed as mortality at 0.00064 ppm measured after 7 days relative to control; conditions: 168 h
Nilaparvata lugens [25] = assay: Effect on hatchability in Nilaparvata lugens (brown planthopper) at 2 ppm measured after 7 days relative to control
Nilaparvata lugens [26] = assay: Insecticidal activity against Nilaparvata lugens (brown planthopper) assessed as mortality at 0.0000256 ppm measured after 7 days relative to control; conditions: 168 h
Nilaparvata lugens [27] = assay: Effect on oviposition in Nilaparvata lugens (brown planthopper) assessed as eggs laid at 0.000128 ppm measured after 7 days relative to control
Nilaparvata lugens [28] = assay: Insecticidal activity against Nilaparvata lugens (brown planthopper) fifth-instar nymphs assessed as mortality at 0.016 ppm measured after 7 days; conditions: 168 h
Nilaparvata lugens [29] = assay: Insecticidal activity against Nilaparvata lugens (brown planthopper) emerged female adult assessed as mortality at 0.4 ppm measured after 7 days relative to control; conditions: 168 h
Nilaparvata lugens [30] = assay: Effect on oviposition in Nilaparvata lugens (brown planthopper) assessed as eggs laid at 2 ppm measured after 7 days relative to control
Nilaparvata lugens [31] = assay: Effect on egg maturity in Nilaparvata lugens (brown planthopper) at 0.016 ppm measured after 7 days relative to control
Nilaparvata lugens [32] = assay: Effect on hatchability in Nilaparvata lugens (brown planthopper) at 0.08 ppm measured after 7 days relative to control
Nilaparvata lugens [33] = assay: Insecticidal activity against Nilaparvata lugens (brown planthopper) assessed as mortality at 0.000128 ppm measured after 7 days relative to control; conditions: 168 h
Nilaparvata lugens [34] = assay: Effect on egg maturity in Nilaparvata lugens (brown planthopper) at 0.4 ppm measured after 7 days relative to control
Nilaparvata lugens [35] = assay: Insecticidal activity against Nilaparvata lugens (brown planthopper) fifth-instar nymphs assessed as mortality at 0.000128 ppm measured after 7 days; conditions: 168 h
Nilaparvata lugens [36] = assay: Effect on oviposition in Nilaparvata lugens (brown planthopper) assessed as eggs laid at 0.08 ppm measured after 7 days relative to control
Nilaparvata lugens [37] = assay: Effect on oviposition in Nilaparvata lugens (brown planthopper) assessed as eggs laid at 0.4 ppm measured after 7 days relative to control
Nilaparvata lugens [38] = assay: Effect on hatchability in Nilaparvata lugens (brown planthopper) at 0.016 ppm measured after 7 days relative to control
Nilaparvata lugens [39] = assay: Insecticidal activity against Nilaparvata lugens (brown planthopper) fifth-instar nymphs assessed as mortality at 0.08 ppm measured after 7 days; conditions: 168 h
Nilaparvata lugens [40] = assay: Effect on oviposition in Nilaparvata lugens (brown planthopper) assessed as eggs laid at 0.00064 ppm measured after 7 days relative to control
Nilaparvata lugens [41] = assay: Insecticidal activity against Nilaparvata lugens (brown planthopper) emerged female adult assessed as mortality at 0.08 ppm measured after 7 days relative to control; conditions: 168 h
Nilaparvata lugens [42] = assay: Insecticidal activity against Nilaparvata lugens (brown planthopper) emerged female adult assessed as mortality at 0.00064 ppm measured after 7 days relative to control; conditions: 168 h
Nilaparvata lugens [43] = assay: Insecticidal activity against Nilaparvata lugens (brown planthopper) fifth-instar nymphs assessed as mortality at 2 ppm measured after 7 days; conditions: 168 h
Nilaparvata lugens [44] = assay: Insecticidal activity against Nilaparvata lugens (brown planthopper) emerged female adult assessed as mortality at 10 ppm measured after 7 days relative to control; conditions: 168 h
Nilaparvata lugens [45] = assay: Effect on hatchability in Nilaparvata lugens (brown planthopper) at 0.4 ppm measured after 7 days relative to control
Nilaparvata lugens [46] = assay: Effect on oviposition in Nilaparvata lugens (brown planthopper) assessed as eggs laid at 0.0000256 ppm measured after 7 days relative to control
Nilaparvata lugens [47] = assay: Effect on development of ovarioles in Nilaparvata lugens (brown planthopper) assessed as number of ovarioles at 0.00064 ppm measured after 7 days relative to control
Nilaparvata lugens [48] = assay: Effect on life span in Nilaparvata lugens (brown planthopper) adult at 0.00064 ppm measured after 7 days relative to control
Nilaparvata lugens [49] = assay: Insecticidal activity against Nilaparvata lugens (brown planthopper) fifth-instar nymphs assessed as mortality at 0.0000256 ppm measured after 7 days; conditions: 168 h
Nilaparvata lugens [50] = assay: Insecticidal activity against Nilaparvata lugens (brown planthopper) assessed as mortality at 0.016 ppm measured after 7 days relative to control; conditions: 168 h
Nilaparvata lugens [51] = assay: Insecticidal activity against Nilaparvata lugens (brown planthopper) assessed as mortality at 0.4 ppm measured after 7 days relative to control; conditions: 168 h
Nilaparvata lugens [52] = assay: Insecticidal activity against Nilaparvata lugens (brown planthopper) assessed as mortality at 10 ppm measured after 7 days relative to control; conditions: 168 h

CC(C)N1C(=O)N(c2ccccc2)CS/C1=N\C(C)(C)C [BUPROFEZIN]
Activity (Nilaparvata lugens [1]): 101% | mortality at 0.00064 ppm (Nilaparvata lugens [2]): 0% | Activity (Nilaparvata lugens [3]): 98% | mortality at 50 ppm (Nilaparvata lugens [4]): 100% | Activity (Nilaparvata lugens [5]): 78% | Activity (Nilaparvata lugens [6]): 0% | mortality at 2 ppm (Nilaparvata lugens [7]): 69% | mortality at 0.016 ppm (Nilaparvata lugens [8]): 3% | Activity (Nilaparvata lugens [9]): 107% | Activity (Nilaparvata lugens [10]): 92% | mortality at 2 ppm (Nilaparvata lugens [11]): 69% | mortality at 10 ppm (Nilaparvata lugens [12]): 89% | mortality at 0.4 ppm (Nilaparvata lugens [13]): 7% | mortality at 2.56e-05 ppm (Nilaparvata lugens [14]): 0% | Activity (Nilaparvata lugens [15]): 28% | mortality at 0.0032 ppm (Nilaparvata lugens [16]): 0% | mortality at 0.08 ppm (Nilaparvata lugens [17]): 9% | Activity (Nilaparvata lugens [18]): 115% | mortality at 0.000128 ppm (Nilaparvata lugens [19]): 11% | mortality at 0.0032 ppm (Nilaparvata lugens [20]): 0% | mortality at 50 ppm (Nilaparvata lugens [21]): 100% | mortality at 0.0032 ppm (Nilaparvata lugens [22]): 0% | Activity (Nilaparvata lugens [23]): 106% | mortality at 0.00064 ppm (Nilaparvata lugens [24]): 0% | Activity (Nilaparvata lugens [25]): 74% | mortality at 2.56e-05 ppm (Nilaparvata lugens [26]): 0% | Activity (Nilaparvata lugens [27]): 117% | mortality at 0.016 ppm (Nilaparvata lugens [28]): 0% | mortality at 0.4 ppm (Nilaparvata lugens [29]): 13% | Activity (Nilaparvata lugens [30]): 36% | Activity (Nilaparvata lugens [31]): 106% | Activity (Nilaparvata lugens [32]): 98% | mortality at 0.000128 ppm (Nilaparvata lugens [33]): 11% | Activity (Nilaparvata lugens [34]): 100% | mortality at 0.000128 ppm (Nilaparvata lugens [35]): 0% | Activity (Nilaparvata lugens [36]): 111% | Activity (Nilaparvata lugens [37]): 79% | Activity (Nilaparvata lugens [38]): 96% | mortality at 0.08 ppm (Nilaparvata lugens [39]): 0% | Activity (Nilaparvata lugens [40]): 88% | mortality at 0.08 ppm (Nilaparvata lugens [41]): 9% | mortality at 0.00064 ppm (Nilaparvata lugens [42]): 0% | mortality at 2 ppm (Nilaparvata lugens [43]): 0% | mortality at 10 ppm (Nilaparvata lugens [44]): 57% | Activity (Nilaparvata lugens [45]): 97% | Activity (Nilaparvata lugens [46]): 97% | Activity (Nilaparvata lugens [47]): 103% | Activity (Nilaparvata lugens [48]): 106% | mortality at 2.56e-05 ppm (Nilaparvata lugens [49]): 0% | mortality at 0.016 ppm (Nilaparvata lugens [50]): 3% | mortality at 0.4 ppm (Nilaparvata lugens [51]): 19% | mortality at 10 ppm (Nilaparvata lugens [52]): 95%

Reference: ChEMBL document CHEMBL3046876, “Effect of Buprofezin on Oviposition of Brown Planthopper, Nilaparvata lugens, at Sub-lethal Dose” (1996)
